Earlier results on 2 molecules are cited in patent US11034961B2 (priority 2015, dated 2021).

The conditions of data set [1]: administered by IV.
The conditions of data set [2]: infusion into the scala tympani.

Turning to `CCN(CC)CC(=O)Nc1c(C)cccc1C` [Lidocaine], in data set [1], the “sufferers in whom the noise associated with tinnitus is reduced or eliminated” value is 60-80%.
For the molecule `Cc1ccccc1C(=O)Nc1ccc(C(=O)N2CCCC(N(C)C)c3ccccc32)cc1` (centres unmarked) [OPC-31260], the “Meniere's disease symptoms” value in data set [2] is on record as “marked reduction”.
